Measurements taken from EPA's ToxValDB 9.5 (doi:10.2903/j.efsa.2007.121r).
Converted amounts (≈) assume the structure as drawn.

How the values were obtained:
Canidae = conditions: chronic; duration: 2 years; oral; diet; Dog Other; body weight
Lepomis macrochirus = conditions: acute; duration: 96 hours; mortality
Apis mellifera = conditions: acute; duration: 48 hours; oral; unspecified; mortality
Oncorhynchus mykiss = conditions: chronic/long-term; duration: 91 days; mortality
Daphnia magna = conditions: chronic/long-term; duration: 21 days; reproduction
Tagia sp. = conditions: acute; duration: 14 days; mortality
Coturnix coturnix = conditions: acute; oral; mortality
Bibionidae = conditions: chronic/long-term; duration: 28 days
Aphidius rhopalosiphi = assay: LR50; higher = less toxic; conditions: not reported; mortality
[1] = reproduction developmental, organ weight

SMILES | NOAEL (Canidae) [mg/kg-day] | LC50 (Lepomis macrochirus) [µg/mL] | LD50 (Apis mellifera) [µg/piece] | NOEC (Oncorhynchus mykiss) [mg/L] | NOEC (Daphnia magna) [mg/L] | LC50 (Tagia sp.) [mg/kg] | LD50 (Coturnix coturnix) [mg/kg-day] | LD50 (Rattus norvegicus; acute, oral, mortality) [mg/kg-day] | NOAEL (Rattus norvegicus; developmental, development) [mg/kg-day] | NOAEL (Rattus norvegicus; [1]) [mg/kg-day] | NOEC (Bibionidae) [mg/L] | LR50 (Aphidius rhopalosiphi) [g/ha]
CCOC(=O)[C@@H](C)Oc1ccc(Oc2nc3ccc(Cl)cc3o2)cc1 [Fenoxaprop-P-ethyl] | 1 | 0.19 (≈ 0.525 µM) | > 199 | 0.036 | 0.22 | > 1000 | 2000 | > 3150 | 10 | 1.4 | 0.2 | 46.4
CCOC(=O)C(C)Oc1ccc(Oc2nc3ccc(Cl)cc3o2)cc1 (stereo not given) [Fenoxaprop-ethyl] | 1 |  |  |  |  |  |  |  | 10 | 1.4 |  | 
